In one data set the target is T1, h17β-HSD2 (Homo sapiens, UniProt P37059).
T1 sequence (P37059 1-387): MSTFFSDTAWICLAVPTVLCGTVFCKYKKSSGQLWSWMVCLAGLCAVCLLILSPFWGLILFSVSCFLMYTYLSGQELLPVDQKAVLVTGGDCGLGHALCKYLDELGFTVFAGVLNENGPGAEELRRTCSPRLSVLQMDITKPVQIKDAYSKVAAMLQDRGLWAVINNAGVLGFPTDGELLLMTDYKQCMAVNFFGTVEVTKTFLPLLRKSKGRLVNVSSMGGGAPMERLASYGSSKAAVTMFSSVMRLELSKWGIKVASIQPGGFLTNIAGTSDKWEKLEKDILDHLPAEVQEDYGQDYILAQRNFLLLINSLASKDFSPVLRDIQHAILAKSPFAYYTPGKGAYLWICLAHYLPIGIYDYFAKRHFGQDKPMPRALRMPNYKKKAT
The data set can be described thus: Inhibition of h17β-HSD2 in a cellular assay (MDA-MB-231). The class given is cell-based. Conditions: MDA-MB-231 cell line, substrate E2 [200 nM], 6 h; for inhibition at 0.25 µM: MDA-MB-231, 250 nM, read-out: % inh HSD2 at 250 nM; for inhibition at 1.25 µM: MDA-MB-231, 1250 nM, read-out: % inh HSD2 at 1250 nM. Here is the method:
Cellular h17β-HSD2 inhibitory activity is measured using the breast cancer cell-line MDA-MB-231[32] (17β-HSD1 activity negligible). [^3H]-E2 (200 nM) is taken as substrate and is incubated with the inhibitor for 6 h at 37°C. After ether extraction, substrate and product are separated by HPLC and detected with a radioflow detector. Potency is evaluated as percentage of inhibition (inhibitor concentrations used: 1250 nM and 250 nM).

The target of the next data set is T2, ERα (Homo sapiens, UniProt P03372).
T2 sequence (P03372 1-595): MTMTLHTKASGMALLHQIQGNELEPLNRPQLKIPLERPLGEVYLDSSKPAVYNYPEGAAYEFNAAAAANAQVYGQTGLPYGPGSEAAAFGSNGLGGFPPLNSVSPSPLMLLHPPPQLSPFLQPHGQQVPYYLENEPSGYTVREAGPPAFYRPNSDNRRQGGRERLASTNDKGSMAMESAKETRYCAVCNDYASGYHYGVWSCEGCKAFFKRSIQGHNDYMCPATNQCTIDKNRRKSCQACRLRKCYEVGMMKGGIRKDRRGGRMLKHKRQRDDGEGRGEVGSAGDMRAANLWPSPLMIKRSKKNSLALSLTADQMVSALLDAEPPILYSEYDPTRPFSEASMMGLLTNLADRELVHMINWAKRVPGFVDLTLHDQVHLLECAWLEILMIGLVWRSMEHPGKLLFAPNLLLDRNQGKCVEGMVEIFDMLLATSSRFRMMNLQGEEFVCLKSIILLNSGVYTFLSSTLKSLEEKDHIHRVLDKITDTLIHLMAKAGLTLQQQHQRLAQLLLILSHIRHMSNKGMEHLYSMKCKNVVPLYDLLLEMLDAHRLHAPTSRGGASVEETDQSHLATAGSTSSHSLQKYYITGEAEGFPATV
The data set can be described thus: Estrogen receptor affinity in a cell-free assay (ERα). The class given is binding. Conditions: 1000-fold excess relative to E2; recombinant human ERα. Here is the method:
(§1) The binding affinity of selected compounds to ERα and ERβ was determined according to the recommendations of the US Environmental Protection Agency (EPA) by their Endocrine Disruptor Screening Program (EDSP)[24] using recombinant human proteins.
(§2) The potential inhibitors were dissolved in DMSO (5% final concentration). […] After incubation, ligand-receptor complexes were selectively bound to hydroxyapatite (83.5 g/LinTE-buffer). The bound complex was washed three times and resuspended in ethanol. For radiodetection, scintillator cocktail (Quickszint 212, Zinsser Analytic, Frankfurt) was added and samples were measured in a liquid scintillation counter (1450 LSC & Luminescence Counter, Perkin Elmer).
(§3) After the assay was established and validated, a modification was made to increase throughput.

For another data set, the target named is ERβ (Homo sapiens, UniProt Q92731). The data set can be described thus: Estrogen receptor affinity in a cell-free assay (ERβ). It is filed as binding. Particulars: 1000-fold excess relative to E2; recombinant human ERβ. Here is the method: as §1, §2, §3
ERβ, sequence (Q92731 whole entry): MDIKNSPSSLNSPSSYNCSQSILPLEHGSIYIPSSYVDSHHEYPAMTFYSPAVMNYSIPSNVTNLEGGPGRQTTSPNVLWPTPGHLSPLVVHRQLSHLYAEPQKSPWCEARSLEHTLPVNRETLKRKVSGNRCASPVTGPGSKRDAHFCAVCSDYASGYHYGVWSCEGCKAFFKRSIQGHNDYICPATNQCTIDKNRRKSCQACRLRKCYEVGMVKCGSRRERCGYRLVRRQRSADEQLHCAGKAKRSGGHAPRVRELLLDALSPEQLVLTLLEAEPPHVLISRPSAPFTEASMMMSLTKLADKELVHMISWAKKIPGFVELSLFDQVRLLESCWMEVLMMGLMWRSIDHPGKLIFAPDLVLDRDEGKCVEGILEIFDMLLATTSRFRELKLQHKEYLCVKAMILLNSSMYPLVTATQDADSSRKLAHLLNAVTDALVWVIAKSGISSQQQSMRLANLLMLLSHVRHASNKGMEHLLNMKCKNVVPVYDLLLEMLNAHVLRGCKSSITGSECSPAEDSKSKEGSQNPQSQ
The target in the next data set is T3, h17β-HSD1 (Homo sapiens, UniProt P14061).
T3 construct: h17β-HSD1 was obtained after precipitation with ammonium sulfate from the cytosolic fraction; from tissue; host or cells: human placenta, cytosolic fraction
T3 sequence (P14061 1-328): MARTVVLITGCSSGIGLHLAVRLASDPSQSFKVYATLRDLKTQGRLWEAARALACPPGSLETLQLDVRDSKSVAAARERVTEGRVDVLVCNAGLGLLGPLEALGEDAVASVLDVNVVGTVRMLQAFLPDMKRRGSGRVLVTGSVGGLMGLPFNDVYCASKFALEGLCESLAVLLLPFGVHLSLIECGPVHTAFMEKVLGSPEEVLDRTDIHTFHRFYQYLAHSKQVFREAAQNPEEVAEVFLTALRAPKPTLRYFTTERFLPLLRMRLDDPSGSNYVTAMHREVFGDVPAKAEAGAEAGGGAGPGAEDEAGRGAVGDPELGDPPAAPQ
The data set can be described thus: Inhibition of h17β-HSD1 in cell-free assay. Conditions: human placental cytosolic fraction, substrate E1 [500 nM], cofactor NADH [500 μM]. It is filed as biochemical. An outline of the steps: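 Cytosolic enzyme from human placenta, ammonium sulfate-precipitated, incubated with 500 μM NADH, test compound and unlabelled plus [3H]-E1 (500 nM final) for 10 min at 37°C. Steroids separated by HPLC with radiodetection to quantify conversion.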

For the compound `COc1cccc(N(C)C(=O)c2ccc(-c3cccc(C)c3)cc2)c1` [Compound 6a, N-(3-methoxyphenyl)-N,3'-dimethyl-[1,1'-biphenyl]-4-carboxamide], at h17β-HSD2, the inhibition at 0.25 µM worked out at 60% and the inhibition at 1.25 µM is ~90%. Also, the “displacement of E2 from ERα” value at ERα is recorded as ≤ 20%. Besides, the “displacement of E2 from ERβ” value at ERβ is given as ≤ 20%. In addition, on h17β-HSD1, the IC50 was 6.4 µM.
With `Cc1cccc(N(C)C(=O)c2ccc(-c3cccc(C)c3F)cc2)c1` [Compound 21a, 2'-Fluoro-N,3'-dimethyl-N-(m-tolyl)-[1,1'-biphenyl]-4-carboxamide], the melting point was in the range of 73 to 76 °C. The “displacement of E2 from ERα” value at ERα is recorded as ≤ 20%. Besides, the “displacement of E2 from ERβ” value on ERβ is listed as ≤ 20%. Moreover, the IC50 at h17β-HSD1 stood at 3.71 µM.
For the compound `COc1cccc(N(C)C(=O)c2ccc(-c3ccc(C)c(C)c3)cc2)c1` [Compound 17a, N-(3-methoxyphenyl)-N,3',4'-trimethyl-[1,1'-biphenyl]-4-carboxamide], at h17β-HSD2, the inhibition at 0.25 µM was 66% and the inhibition at 1.25 µM is ~90%. Further, the “displacement of E2 from ERα” value on ERα is given as ≤ 20%. In addition, on ERβ, the “displacement of E2 from ERβ” value is reported as ≤ 20%. Further, on h17β-HSD1, the IC50 worked out at 13.3 µM.
For `Cc1cccc(-c2ccc(C(=O)N(C)Cc3cccc(O)c3)cc2)c1F` [Compound 25, 2'-Fluoro-N-(3-hydroxybenzyl)-N,3'-dimethyl-[1,1'-biphenyl]-4-carboxamide], the melting point was in the range of 123 to 126 °C. For the same compound, at h17β-HSD2, the inhibition at 0.25 µM was 67% and the inhibition at 1.25 µM is ~90%. For the same compound, the “displacement of E2 from ERα” value at ERα is ≤ 20%. Besides, the “displacement of E2 from ERβ” value at ERβ is given as ≤ 20%. Further, it took 31 µM to reach half-maximal inhibition against h17β-HSD1 (IC50).

The values above are taken from article PMC4521925, “17β-Hydroxysteroid Dehydrogenase Type 2 Inhibition: Discovery of Selective and Metabolically Stable Compounds Inhibiting Both the Human Enzyme and Its Murine Ortholog” (PLoS ONE, 2015).
